ChEMBL document CHEMBL4732201, “Synthesis and preliminary anticancer evaluation of new triazole bisphosphonate-based isoprenoid biosynthesis inhibitors” (Eur J Med Chem, 2021)

Tests used:
[1] = system: RPMI-8226; experiment: Antiproliferative activity against human RPMI-8226 cells; type: functional, cell-based
[2] = molecular target: T1, Geranylgeranyl pyrophosphate synthase (Homo sapiens) (UniProt O95749); experiment: Inhibition of GGPPS in human A549 cells assessed as reduction in cell growth at 100 uM incubated for 72 hrs by MTT assay relative to control; type: cell-based
T1 sequence (whole entry): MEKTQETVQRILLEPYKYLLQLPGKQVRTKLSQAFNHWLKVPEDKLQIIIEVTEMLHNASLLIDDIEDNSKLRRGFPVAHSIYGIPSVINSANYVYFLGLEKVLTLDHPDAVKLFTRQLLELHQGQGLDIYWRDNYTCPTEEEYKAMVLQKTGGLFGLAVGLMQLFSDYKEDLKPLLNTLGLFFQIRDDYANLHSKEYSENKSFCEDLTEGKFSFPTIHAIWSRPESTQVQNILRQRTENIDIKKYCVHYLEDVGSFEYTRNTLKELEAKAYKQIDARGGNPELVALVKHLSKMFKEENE

[3] = molecular target: T1, Geranylgeranyl pyrophosphate synthase (Homo sapiens); experiment: Inhibition of GGPPS in human MDA-MB-231 cells assessed as reduction in cell growth at 100 uM incubated for 72 hrs by MTT assay relative to control; type: cell-based
[4] = molecular target: T1, Geranylgeranyl pyrophosphate synthase (Homo sapiens); experiment: Inhibition of GGPPS in human MIA PaCa-2 cells assessed as reduction in cell growth at 100 uM incubated for 72 hrs by MTT assay relative to control; type: cell-based
[5] = molecular target: T2, Geranylgeranyl pyrophosphate synthase (Homo sapiens, UniProt O95749); experiment: Inhibition of recombinant human N- terminal His-tagged GGPPS (1 to 300 residues) expressed in Escherichia coli
T2 sequence (O95749 whole entry): T1 sequence (whole entry)

[6] = molecular target: T3, Farnesyl pyrophosphate synthase (Homo sapiens, UniProt P14324); experiment: Inhibition of FPPS (unknown origin)
T3 sequence (P14324 whole entry): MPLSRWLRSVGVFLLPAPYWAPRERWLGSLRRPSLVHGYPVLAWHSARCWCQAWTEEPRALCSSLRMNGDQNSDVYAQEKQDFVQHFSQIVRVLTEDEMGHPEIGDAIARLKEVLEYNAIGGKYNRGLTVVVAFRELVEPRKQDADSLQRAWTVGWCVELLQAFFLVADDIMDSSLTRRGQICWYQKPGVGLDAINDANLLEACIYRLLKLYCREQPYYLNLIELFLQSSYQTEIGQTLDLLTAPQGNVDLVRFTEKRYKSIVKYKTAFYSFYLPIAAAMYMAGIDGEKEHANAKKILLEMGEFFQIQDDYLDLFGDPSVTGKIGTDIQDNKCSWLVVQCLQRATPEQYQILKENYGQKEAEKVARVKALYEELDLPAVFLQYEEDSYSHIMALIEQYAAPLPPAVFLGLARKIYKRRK

SMILES	IC50 [5]	IC50 [6]	also measured
CC(C)=CCCC(C)=CCCc1cn(CC(O)(P(=O)(O)O)P(=O)(O)O)nn1			EC50 [1]: 0.19 µM
CCCCc1cn(CCCC(O)(P(=O)(O)O)P(=O)(O)O)nn1			growth inhibition (GI) [2]: < 30%; growth inhibition (GI) [3]: < 30%; growth inhibition (GI) [4]: < 30%
CC(C)=CCC/C(C)=C/CCc1cn(CC(O)(P(=O)(O)O)P(=O)(O)O)nn1	0.173 µM	49.6 µM	
CC(C)=CCC/C(C)=C\CCc1cn(CC(O)(P(=O)(O)O)P(=O)(O)O)nn1	0.075 µM	33.3 µM	
